This note sets out measurements from patent publication US9107415B2, “2-(substituted-phenyl)-cyclopentane-1,3-dione compounds, and derivatives thereof” (Syngenta Limited, priority 2011, dated 2015).

Common to all, as to format: in vivo
In assay [1] the test system is Echinochloa crus galli, barnyardgrass (ECHCG). The assay is described as follows: Biological Example 3 glasshouse screen, post-emergence herbicidal activity. The settings on record: 360 h, 15 DAA, no safener, read-out: ECHCG percentage phytotoxicity; for pest or weed control at 30 g/ha: application rate 30 g/ha; for pest or weed control at 60 g/ha: application rate 60 g/ha. As to the method:
(§1) Test Method: Seeds of a variety of test species are sown in standard soil in pots. After cultivation for one day (pre-emergence) or after 12 days cultivation (post-emergence) under controlled conditions in a glasshouse (warm climate species at 24/18°C., cool climate species at 20/16°C., both at day/night; 16 hours light; 65% humidity), the plants are sprayed with an aqueous spray solution derived from the formulation of the “technical”(i.e. unformulated) active ingredient dissolved in acetone plus IF50, at a 1:20 ratio of “technical”active ingredient to IF50. The IF50 contains about 10.56 weight % Emulsogen EL™(castor oil ethoxylate, CAS Registry number 61791-12-6), about 42.22 weight % N-methylpyrrolidone, and about 42.22 weight % DPG-Monoethyl ether (dipropylene glycol mono-ethyl ether). The adjuvant X-77 (a mixture of alkyl aryl polyoxyethylene glycols and free fatty acids in isopropanol, CAS Registry number 11097-66-8) is added to the aqueous spray solution to form a 0.2% v/v solution, before spraying onto the plants.
(§2) The test plants are then grown in a glasshouse under controlled conditions in a glasshouse (at 24/18°C. or 20/16°C., day/night; 16 hours light; 65% humidity) and watered twice daily. After 15 days after application of the herbicide (15 DAA) (for post-emergence), and after 20 DAA (for pre-emergence), the test is evaluated visually, and an assessed percentage phytotoxicity score is given for each herbicidal application on each plant/weed species (with 100%=total damage to plant; 0%=no damage to plant). […]

For assay [2], the system named is Avena fatua, wild oats (AVEFA). The description is as above. The settings on record: 360 h, 15 DAA, no safener, read-out: AVEFA percentage phytotoxicity; for pest or weed control at 30 g/ha: application rate 30 g/ha; for pest or weed control at 60 g/ha: application rate 60 g/ha. The procedure: as §1, §2
The test system of assay [3] is Alopecurus myosuroides, blackgrass (ALOMY). The description is as above. The settings on record: 360 h, 15 DAA, no safener, read-out: ALOMY percentage phytotoxicity; for pest or weed control at 30 g/ha: application rate 30 g/ha; for pest or weed control at 60 g/ha: application rate 60 g/ha. As to the method: as §1, §2
Assay [4] deals with Lolium perenne, perennial ryegrass (LOLPE). The assay is described as above. The settings on record: 360 h, 15 DAA, no safener, read-out: LOLPE percentage phytotoxicity; for pest or weed control at 30 g/ha: application rate 30 g/ha; for pest or weed control at 60 g/ha: application rate 60 g/ha. As to the method: as §1, §2
For assay [5], the system named is Triticum aestivum, wheat (TRZAW). The assay is described as follows: Biological Example 3 glasshouse screen, post-emergence, phytotoxicity on wheat. The settings on record: 360 h, 15 DAA, no safener, read-out: TRZAW percentage phytotoxicity; for pest or weed control at 30 g/ha: application rate 30 g/ha; for pest or weed control at 60 g/ha: application rate 60 g/ha. The procedure:
as §1
The test plants are then grown in a glasshouse under controlled conditions in a glasshouse (at 24/18°C. or 20/16°C., day/night; 16 hours light; 65% humidity) and watered twice daily. After 15 days after application of the herbicide (15 DAA) (for post-emergence), and after 20 DAA (for pre-emergence), the test is evaluated visually, and an assessed percentage phytotoxicity score is given for each herbicidal application on each plant/weed species (with 100%=total damage to plant; 0%=no damage to plant).
These give an approximate indication of the level of selectivity on wheat for these tested compounds, when a herbicide safener such as cloquintocet-mexyl is not used: […]

Assay [6] concerns Echinochloa crus-galli (ECHCG). The assay is described as follows: Biological Example 1 glasshouse screen, post-emergence herbicidal activity. The settings on record: 312 h, application rate 250 g/ha, evaluated after 13 days, read-out: ECHCG percentage phytotoxicity. The procedure: (§3) Seeds of a variety of test species were sown in standard soil in pots. After cultivation for one day (pre-emergence) or after 8 days cultivation (post-emergence) under controlled conditions in a glasshouse (at 24/16°C., day/night; 14 hours light; 65% humidity), the plants were sprayed with an aqueous spray solution derived from the formulation of the “technical”(i.e. unformulated) active ingredient in acetone/water (50:50) solution containing 0.5% Tween 20 (polyoxyethylene sorbitan monolaurate, CAS Registry Number 9005-64-5). The test plants were then grown in a glasshouse under controlled conditions in a glasshouse (at 24/16°C., day/night; 14 hours light; 65% humidity) and watered twice daily. After 13 days for pre- or post-emergence, the test was evaluated visually, and an assessed percentage phytotoxicity score given for each herbicidal application on each plant/weed species (with 100%=total damage to plant; 0%=no damage to plant).
(§4) Test plants: Alopecurus myosuroides (ALOMY), Setaria faberi (SETFA), Echinochloa crus-galli (ECHCG), Solanum nigrum (SOLNI), Amaranthus retroflexus (AMARE) and Ipomoea hederacea (IPOHE). ALOMY, SETFA and ECHCG are grassy monocotyledonous weeds. SOLNI, AMARE and IPOHE are dicotyledonous (broadleaved) weeds.
(§5) Test plants: Lolium perenne (LOLPE), Alopecurus myosuroides (ALOMY), Echinochloa crus-galli (ECHCG), and Avena fatua (AVEFA). All four of these are grassy monocotyledonous weeds.

For assay [7], the system named is Alopecurus myosuroides (ALOMY). The description is as above. The settings on record: 312 h, application rate 250 g/ha, evaluated after 13 days, read-out: ALOMY percentage phytotoxicity. As to the method: as §3, §4, §5
The subject of assay [8] is Avena fatua (AVEFA). The description is as above. The settings on record: 312 h, application rate 250 g/ha, evaluated after 13 days, read-out: AVEFA percentage phytotoxicity. The procedure:
as §3, §5

The test system of assay [9] is Lolium perenne (LOLPE). The description is as above. The settings on record: 312 h, application rate 250 g/ha, evaluated after 13 days, read-out: LOLPE percentage phytotoxicity. As to the method:
as §3, §5

Assay [10] concerns Avena fatua (AVEFA). In words: Biological Example 1 glasshouse screen, pre-emergence herbicidal activity. The settings on record: 312 h, application rate 250 g/ha, evaluated after 13 days, read-out: AVEFA percentage phytotoxicity. As to the method: as §3, §5
Assay [11] concerns Lolium perenne (LOLPE). The description is as above. The settings on record: 312 h, application rate 250 g/ha, evaluated after 13 days, read-out: LOLPE percentage phytotoxicity. As to the method:
as §3, §5

Assay [12] has as its system Echinochloa crus-galli (ECHCG). The assay is described as above. The settings on record: 312 h, application rate 250 g/ha, evaluated after 13 days, read-out: ECHCG percentage phytotoxicity. The procedure:
as §3, §4, §5

Assay [13] relates to Alopecurus myosuroides (ALOMY). The assay is described as above. The settings on record: 312 h, application rate 250 g/ha, evaluated after 13 days, read-out: ALOMY percentage phytotoxicity. The procedure:
as §3, §4, §5

The subject of assay [14] is Avena fatua (AVEFA). The assay is described as follows: Biological Example 2 post-emergence herbicidal activity (comparative data). As to the method: as §3
(§6) Comparative herbicidal data are given for certain exemplified compounds with 4-(prop-1-ynyl)-2,6-dimethylphenyl or 4-(chloroethynyl)-2,6-dimethylphenyl headgroups, compared to the corresponding comparative compounds with 4-ethynyl-2,6-dimethylphenyl headgroups, as follows.
(§7) Except where specified otherwise, the glasshouse screen for herbicidal activity is substantially the same as that presented in Biological Example 1 hereinabove. The weed abbreviations are as defined in Biological Example 1.

Assay [15] relates to Echinochloa crus-galli (ECHCG). The description is as above. The settings on record: 312 h, read-out: ECHCG percentage phytotoxicity; for pest or weed control at 15.625 g/ha: 15.625 g/ha application rate; for pest or weed control at 62.5 g/ha: 62.5 g/ha application rate. The procedure:
as §3, §6, §7

In assay [16] the test system is Alopecurus myosuroides (ALOMY). Described as above. The settings on record: 312 h, read-out: ALOMY percentage phytotoxicity; for pest or weed control at 15.625 g/ha: 15.625 g/ha application rate; for pest or weed control at 62.5 g/ha: 62.5 g/ha application rate. The procedure: as §3, §6, §7
The test system of assay [17] is Lolium perenne (LOLPE). The description is as above. As to the method:
as §3, §6, §7

The test system of another assay is Setaria faberi (SETFA). Described as above. As to the method: as §3, §6, §7

As to `CC#Cc1cc(C)c(C2=C(O)CC(Cc3cccc(F)n3)C2=O)c(C)c1` (centres unmarked) [Compound A-7], the pest or weed control at 30 g/ha in assay [1] worked out at 80%; in assay [2], 40%; in assay [3], 70%; in assay [4], 80%; in assay [5] it was 40%. Further, the pest or weed control at 60 g/ha in [1] was 100%; in [2] it was 50%; in assay [3] it was 80%; in assay [4], 90%; in assay [5], 50%. Also, the pest or weed control at 250 g/ha was determined as 100% in [6], 100% in assay [7], 90% with Avena fatua (AVEFA) [8] and 100% with Lolium perenne (LOLPE) [9].
For the compound `CC#Cc1cc(C)c(C2=C(O)CC(Cc3cccc(C)n3)C2=O)c(C)c1` (centres unmarked) [Compound A-9], the pest or weed control at 250 g/ha with Avena fatua (AVEFA) [10] turned out to be 100%; in the assay on Lolium perenne (LOLPE) [11] it was 100%; in [12] it was 100%; in assay [13], 100%; in [6], 100%; in [7], 90%. Besides, the pest or weed control at 250 g/ha in the assay with Avena fatua (AVEFA) [8] and in the assay with Lolium perenne (LOLPE) [9] was 100% throughout. In addition, the pest or weed control at 30 g/ha in assay [1] is 70%; in [2] it was 30%; in [3], 70%; in assay [4], 50%; in [5], 20%. Also, the pest or weed control at 60 g/ha came to 100% in assay [1]; 30% in [2]; 80% in [3]; 100% in [4]; 30% in [5].
Turning to `CC#Cc1cc(C)c(C2=C(O)CC(Cc3cccnc3)C2=O)c(C)c1` (centres unmarked) [Compound A-10], the pest or weed control at 250 g/ha in the assay on Avena fatua (AVEFA) [10] worked out at 90%; in the assay on Lolium perenne (LOLPE) [11], 100%; in assay [12] it was 100%; in [13], 80%; in [6], 100%; in assay [7] it was 90%. Moreover, the pest or weed control at 250 g/ha in the assay on Avena fatua (AVEFA) [8] is 90%; in the assay with Lolium perenne (LOLPE) [9] it was 100%. Further, the pest or weed control at 60 g/ha in assay [1] amounted to 80%; in assay [2], 50%; in assay [3], 80%; in assay [4] it was 40%; in assay [5] it was 50%.
`CC#Cc1cc(C)c(C2=C(O)CC(Cc3cccnc3C#CC)C2=O)c(C)c1` (centres unmarked) [Compound A-15]: the pest or weed control at 250 g/ha stood at 70% in the assay with Avena fatua (AVEFA) [10]; 100% with Lolium perenne (LOLPE) [11]; 100% in assay [12]; 90% in assay [13]; 100% in assay [6]; 90% in assay [7]. Further, the pest or weed control at 250 g/ha in the assay with Avena fatua (AVEFA) [8] and with Lolium perenne (LOLPE) [9] was 100% each time. The pest or weed control at 60 g/ha in assay [1] stood at 80%; in assay [2] it was 80%; in assay [3], 50%; in assay [4], 40%; in assay [5], 30%.
In the case of `C#Cc1cc(C)c(C2=C(O)CC(Cc3ccccn3)C2=O)c(C)c1` (centres unmarked) [X-1, reference compound], the AVEFA percentage phytotoxicity in the assay on Avena fatua (AVEFA) [14] (15.625 g/ha application rate) is recorded as 50%; with Avena fatua (AVEFA) [14] (62.5 g/ha application rate) it was 90%. For the same compound, the results for the pest or weed control at 15.625 g/ha in [15] and in assay [16] were 70% and 60%, respectively. Moreover, the pest or weed control at 62.5 g/ha in assay [15] amounted to 80%; in [16], 100%. For the same compound, the figures for the LOLPE percentage phytotoxicity in the assay with Lolium perenne (LOLPE) [17] (15.625 g/ha application rate) and with Lolium perenne (LOLPE) [17] (62.5 g/ha application rate) were 60% and 100%, respectively.
For `C#Cc1cc(C)c(C2C(=O)CCC2=O)c(C)c1` [X-3, reference compound], the SETFA percentage phytotoxicity in the assay on Setaria faberi (SETFA) (15.625 g/ha application rate) and with Setaria faberi (SETFA) (62.5 g/ha application rate) was 0% throughout. Also, the pest or weed control at 15.625 g/ha in assay [15] and in assay [16] was 0% each time. For the same compound, the pest or weed control at 62.5 g/ha is 20% in [15] and 0% in assay [16].
Regarding `C#Cc1cc(C)c(C2C(=O)C3C(C2=O)[C@H]2CC[C@@H]3O2)c(C)c1` (some centres unmarked) [X-4, reference compound], the SETFA percentage phytotoxicity with Setaria faberi (SETFA) (15.625 g/ha application rate) and in the assay with Setaria faberi (SETFA) (62.5 g/ha application rate) was 40% throughout. Moreover, the pest or weed control at 15.625 g/ha was determined as 80% in assay [15] and 30% in assay [16]. Moreover, the pest or weed control at 62.5 g/ha in assay [15] and in assay [16] was 80% in each case.
As for `Cc1cc(-c2ccc(F)cc2)cc(C)c1C1C(=O)CC(Cc2ccc(C#N)cn2)C1=O` (centres unmarked) [reference compound], the pest or weed control at 30 g/ha in assay [1] came out at 100%; in assay [2], 30%; in assay [3], 70%; in assay [4], 10%; in [5], 50%.
